The numbers were not newly measured in Sander's compilation of Henry's law constants, which cites them from elsewhere.

The nature of the series: Henry solubility constant Hcp at 298.15 K (mol/(m3 Pa)). Particulars: cited value.
The mark [1] stands for this setting: reference: Burkholder et al. (2015).
[2] abbreviates: reference: Burkholder et al. (2019).
[3] abbreviates: reference: Sander et al. (2011).
Where [4] appears, read: reference: Sander et al. (2006).
The mark [5] stands for this setting: reference: Barcelo and Hennion (1997).

Values joined by “and” are separate entries in the source; they are usually repeats but may differ in a detail not shown here. Equal values may be shown once.

As for `O=C(O)CBr` [bromoethanoic acid], the “Henry solubility constant Hcp” value was 1500 under setting [1], 1500 under setting [2] and 1500 under setting [3]. With `CBr` [bromomethane], the “Henry solubility constant Hcp” value was 0.0015 (reference: Brockbank (2013)); 0.0017 under setting [1]; 0.0015 under setting [2]; 4.4e-05 (reference: Goldstein (1982)); 0.0017 under setting [4]; 0.0017 under setting [3]. In the case of `CCCC=O` [butanal], the “Henry solubility constant Hcp” value is 0.091 (reference: Brockbank (2013)); 0.095 under setting [1]; 0.095 under setting [2]; 0.095 under setting [4]; 0.095 under setting [3]. Consider `CCCC` [butane], for which the “Henry solubility constant Hcp” value is, setting by setting: under setting [1], 1.2e-05; under setting [2], 1.2e-05; (reference: Deno and Berkheimer (1960)) 1.1e-05; (reference: Hayduk (1986)) 1.2e-05; under setting [4], 1.2e-05; under setting [3], 1.2e-05.

Take `CCCCOC(=O)CCC` [butyl butanoate]: for the setting “reference: Brockbank (2013)”, the “Henry solubility constant Hcp” value was 0.017.

For the compound `CCCCOC(C)=O` [butyl ethanoate], the “Henry solubility constant Hcp” value is, setting by setting: (reference: Brockbank (2013)) 0.038; (reference: Goldstein (1982)) 0.021. Turning to `CCCCOC=O` [butyl methanoate], where the note is “reference: Brockbank (2013)”, the “Henry solubility constant Hcp” value is 0.026.

With `CCCCOC(=O)CC` [butyl propanoate], the “Henry solubility constant Hcp” value (reference: Brockbank (2013)) was 0.022. For `CCSC(=O)N(CC(C)C)CC(C)C` [butylate], the “Henry solubility constant Hcp” value under setting [5] is 0.018. On to `CCCCc1ccccc1` [butylbenzene], for which the “Henry solubility constant Hcp” value (reference: Brockbank (2013)) was 0.00071.

On to `O=C1C2CC=CCC2C(=O)N1SC(Cl)(Cl)Cl` (stereo not given) [captan], for which the “Henry solubility constant Hcp” value under setting [5] is 0.016. Regarding `c1ccc2c(c1)[nH]c1ccccc12` [carbazole], the “Henry solubility constant Hcp” value (reference: Brockbank (2013)) was 94. Turning to `CCNC(=O)[C@@H](C)OC(=O)Nc1ccccc1` [carbetamide], the “Henry solubility constant Hcp” value under setting [5] was 1.1. `CNC(=O)Oc1cccc2c1OC(C)(C)C2` [carbofuran]: the “Henry solubility constant Hcp” value under setting [5] was 19. For `S=C=S` [carbon disulfide], the “Henry solubility constant Hcp” value runs as follows: under setting [1], 0.00061; under setting [2], 0.00061; (reference: Goldstein (1982)) 0.00075; under setting [4], 0.00061; under setting [3], 0.00061.

Consider `[C-]#[O+]` [carbon monoxide], for which the “Henry solubility constant Hcp” value by setting is: under setting [1], 9.7e-06; under setting [2], 9.7e-06; under setting [4], 9.7e-06; under setting [3], 9.7e-06. For `O=C=S` [carbon oxide sulfide], the “Henry solubility constant Hcp” value under setting [1] is 0.0002, the “Henry solubility constant Hcp” value under setting [2] is 0.0002, the “Henry solubility constant Hcp” value under setting [4] was 0.0002 and the “Henry solubility constant Hcp” value under setting [3] is 0.0002. In the case of `COC(=O)OC` [carbonic acid, dimethyl ester], the “Henry solubility constant Hcp” value is, setting by setting: (reference: Brockbank (2013)) 0.15; under setting [1], 0.16; under setting [2], 0.16.

On to `O=C(F)Cl` [carbonic chloride fluoride], for which the “Henry solubility constant Hcp” value (reference: George et al. (1993)) was 0.099. Take `NCl` [chloramine]: the “Henry solubility constant Hcp” value runs as follows: under setting [1], 0.86; under setting [2], 0.86; under setting [4], 0.86; under setting [3], 0.86. Take `ClC1=C(Cl)[C@]2(Cl)C3C(Cl)C(Cl)CC3[C@@]1(Cl)C2(Cl)Cl` (stereo not given in full) [chlordane]: the “Henry solubility constant Hcp” value under setting [5] was 0.0011. As to `CCOP(=O)(OCC)OC(=CCl)c1ccc(Cl)cc1Cl` [chlorfenvinphos], the “Henry solubility constant Hcp” value under setting [5] was 35. Take `[O][Cl+][O-]` [chlorine dioxide]: the “Henry solubility constant Hcp” value is 0.01 under setting [1]; 0.01 under setting [2]; 0.01 under setting [4]; 0.01 under setting [3]; 0.01 (reference: Young (1983)).

Take `Clc1ccccc1` [chlorobenzene]: the “Henry solubility constant Hcp” value (reference: Brockbank (2013)) is 0.0026 and the “Henry solubility constant Hcp” value (reference: Goldstein (1982)) was 0.0025. Turning to `FC(F)Cl` [chlorodifluoromethane], the “Henry solubility constant Hcp” value reads like this: under setting [1], 0.00035; under setting [2], 0.00035; under setting [3], 0.00034.

With `CCCl` [chloroethane], the “Henry solubility constant Hcp” value is, setting by setting: (reference: Brockbank (2013)) 0.00081; under setting [1], 0.00083; under setting [2], 0.00081; (reference: Goldstein (1982)) 0.00068. `C=CCl` [chloroethene]: the “Henry solubility constant Hcp” value is, setting by setting: (reference: Brockbank (2013)) 0.00043; under setting [1], 0.00038; under setting [2], 0.00038. Consider `[CH3][Hg][Cl]` [chloromethylmercury], for which the “Henry solubility constant Hcp” value (reference: WHO (1990)) was 20. Take `FC(F)(F)Cl` [chlorotrifluoromethane]: the “Henry solubility constant Hcp” value is 9.9e-06 under setting [1], 9.9e-06 under setting [2] and 9.9e-06 under setting [3]. For the compound `CC(C)OC(=O)Nc1cccc(Cl)c1` [chlorpropham], the “Henry solubility constant Hcp” value under setting [5] is 47. `CCOP(=S)(OCC)Oc1nc(Cl)c(Cl)cc1Cl` [chlorpyrifos]: the “Henry solubility constant Hcp” value by setting is: under setting [5], 0.0056; (reference: HSDB (2015)) 3.4; (reference: Muir et al. (2004)) 1.8 and 2.1. With `Cc1ccc(NC(=O)N(C)C)cc1Cl` [chlortoluron], under setting [5], the “Henry solubility constant Hcp” value is 190. Take `c1ccc2c(c1)ccc1c3ccccc3ccc21` [chrysene]: the “Henry solubility constant Hcp” value (reference: Brockbank (2013)) is 15 and the “Henry solubility constant Hcp” value (reference: Petrasek et al. (1983)) is 6.6. Take `C[C@@H]1CCCC[C@@H]1C` [cis-1,2-dimethylcyclohexane]: where the note is “reference: Brockbank (2013)”, the “Henry solubility constant Hcp” value is 2.6e-05. For the compound `C/C=C\CCCC` [cis-2-heptene], the “Henry solubility constant Hcp” value (reference: Brockbank (2013)) was 2.4e-05. For the compound `CN/C(=N\[N+](=O)[O-])NCc1cnc(Cl)s1` [clothianidin], the “Henry solubility constant Hcp” value (reference: MacBean (2012b)) was 3.4e+10. As for `CCNc1nc(Cl)nc(NC(C)(C)C#N)n1` [cyanazine], under setting [5], the “Henry solubility constant Hcp” value was 33000. Consider `O=C(O)C1(C(=O)Nc2ccc(Cl)cc2Cl)CC1` [cyclanilide], for which, under “reference: MacBean (2012b)”, the “Henry solubility constant Hcp” value is 14000.

`C1CCCCCC1` [cycloheptane]: the “Henry solubility constant Hcp” value (reference: Brockbank (2013)) is 6.7e-05.

On to `C1=CCCCCC1` [cycloheptene], for which the “Henry solubility constant Hcp” value (reference: Brockbank (2013)) was 0.0002. Consider `NC1CCCCC1` [cyclohexanamine], for which the “Henry solubility constant Hcp” value (reference: Brockbank (2013)) was 2.2. For the compound `C1CCCCC1` [cyclohexane], the “Henry solubility constant Hcp” value is 5.1e-05 (reference: Brockbank (2013)) and 6.2e-05 (reference: Goldstein (1982)). Take `O=C1CCCCC1` [cyclohexanone]: the “Henry solubility constant Hcp” value (reference: Brockbank (2013)) was 1.5. As to `C1=CCCCC1` [cyclohexene], for the setting “reference: Brockbank (2013)”, the “Henry solubility constant Hcp” value was 0.00029. Consider `CC(=O)OC1CCCCC1` [cyclohexyl ethanoate], for which the “Henry solubility constant Hcp” value (reference: Brockbank (2013)) was 0.1. With `C1CCCCCCC1` [cyclooctane], the “Henry solubility constant Hcp” value (reference: Brockbank (2013)) is 7.3e-05. As for `C1=C\CCCCCC/1` [cyclooctene], for the setting “reference: Brockbank (2013)”, the “Henry solubility constant Hcp” value was 0.00021. Consider `C1CCCC1` [cyclopentane], for which, under “reference: Brockbank (2013)”, the “Henry solubility constant Hcp” value is 5.8e-05.

As for `O=C1CCCC1` [cyclopentanone], for the setting “reference: Brockbank (2013)”, the “Henry solubility constant Hcp” value is 1.2.

For the compound `C1=CCCC1` [cyclopentene], where the note is “reference: Brockbank (2013)”, the “Henry solubility constant Hcp” value was 0.0002. Regarding `CC(C1CC1)C(O)(Cn1cncn1)c1ccc(Cl)cc1` (stereo not given) [cyproconazole], under setting [5], the “Henry solubility constant Hcp” value is 130.

As for `COC(=O)c1c(Cl)c(Cl)c(C(=O)OC)c(Cl)c1Cl` [dacthal], the “Henry solubility constant Hcp” value (reference: Muir et al. (2004)) is 4.4.

For the compound `CN1CSC(=S)N(C)C1` [dazomet], under “reference: MacBean (2012b)”, the “Henry solubility constant Hcp” value was 37000. In the case of `CCCCCCCCCC=O` [decanal], for the setting “reference: Brockbank (2013)”, the “Henry solubility constant Hcp” value was 0.0063. With `CCCCCCCCCC` [decane], the “Henry solubility constant Hcp” value (reference: Brockbank (2013)) was 1.3e-06.

Take `CCCCCCCCCCc1ccccc1` [decylbenzene]: the “Henry solubility constant Hcp” value (reference: Brockbank (2013)) is 7.6e-05. Regarding `CC(C)SC(C)C` [di-(2-propyl)-sulfide], the “Henry solubility constant Hcp” value (reference: Brockbank (2013)) was 0.0028.

Take `CCOP(=S)(OCC)Oc1cc(C)nc(C(C)C)n1` [diazinon]: the “Henry solubility constant Hcp” value under setting [5] is 0.15; the “Henry solubility constant Hcp” value (reference: Muir et al. (2004)) was 46 and 92. For the compound `c1ccc2c(c1)oc1ccccc12` [dibenzofuran], the “Henry solubility constant Hcp” value was 0.074 (reference: Brockbank (2013)) and 0.091 (reference: Mackay et al. (1992b)). `O=C(O)C(Br)Br` [dibromoethanoic acid]: the “Henry solubility constant Hcp” value under setting [1] is 2300, the “Henry solubility constant Hcp” value under setting [2] was 2300 and the “Henry solubility constant Hcp” value under setting [3] is 2300. As for `BrCBr` [dibromomethane], the “Henry solubility constant Hcp” value is, setting by setting: (reference: Brockbank (2013)) 0.012; under setting [2], 0.012.

Turning to `CCCCOC(=O)c1ccccc1C(=O)OCCCC` [dibutyl phthalate], the “Henry solubility constant Hcp” value reads like this: (reference: Brockbank (2013)) 11; (reference: McCarty (1980)) 0.16.

As to `CCCCNCCCC` [dibutylamine], the “Henry solubility constant Hcp” value (reference: Brockbank (2013)) was 0.13. For `COc1c(Cl)ccc(Cl)c1C(=O)O` [dicamba], the “Henry solubility constant Hcp” value under setting [5] is 82. Turning to `ClNCl` [dichloramine], the “Henry solubility constant Hcp” value runs as follows: under setting [1], 0.29; under setting [2], 0.29; under setting [4], 0.29; under setting [3], 0.29. `FC(F)(Cl)Cl` [dichlorodifluoromethane]: the “Henry solubility constant Hcp” value (reference: Brockbank (2013)) is 3.1e-05; the “Henry solubility constant Hcp” value under setting [1] was 3e-05; the “Henry solubility constant Hcp” value under setting [2] was 3e-05; the “Henry solubility constant Hcp” value (reference: Goldstein (1982)) is 3.5e-06; the “Henry solubility constant Hcp” value under setting [4] is 3e-05; the “Henry solubility constant Hcp” value under setting [3] is 3e-05.
